Where two headings read alike, the source gives them in different places.
Tests used:
AR / CBP ternary complex = AR / CBP ternary complex (Homo sapiens, UniProt P10275+Q92793); assay: Ternary complex formation assay (sandwich ELISA, AR capture, CBP antibody detection) in VCaP cell lysates; type: cell-based
Procedure, shortened: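 Sandwich ELISA: plates were coated with anti-AR antibody (AR441) and given lysates of VCaP cells treated 1.5 h with bifunctional compound in charcoal-stripped serum. Co-captured CBP or p300 was probed with rabbit mAbs and HRP secondary. Chemifluorescent signal (ex 570/em 585) was read at 0, 5 and 15 min.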

VCaP cells = assay: VCaP growth inhibition assay (CTG); type: cell-based; settings: Homo sapiens, 216 h, 30 pM R1881, 9 days
Procedure, shortened: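 Growth was measured by CTG luminescence after a 9-day exposure of VCaP cells to compound (final 10 fM–100 nM, fivefold steps) in the presence of 30 pM final R1881, in phenol red-free DMEM/5% CSS. IC50 values were derived by nonlinear 4-parameter regression of RLU against concentration.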

[1] = treated 1.5 hours, rabbit CBP or p300 antibody detection, average, read-out: Average Ternary Complex

Chain of AR / CBP ternary complex (P10275 whole entry): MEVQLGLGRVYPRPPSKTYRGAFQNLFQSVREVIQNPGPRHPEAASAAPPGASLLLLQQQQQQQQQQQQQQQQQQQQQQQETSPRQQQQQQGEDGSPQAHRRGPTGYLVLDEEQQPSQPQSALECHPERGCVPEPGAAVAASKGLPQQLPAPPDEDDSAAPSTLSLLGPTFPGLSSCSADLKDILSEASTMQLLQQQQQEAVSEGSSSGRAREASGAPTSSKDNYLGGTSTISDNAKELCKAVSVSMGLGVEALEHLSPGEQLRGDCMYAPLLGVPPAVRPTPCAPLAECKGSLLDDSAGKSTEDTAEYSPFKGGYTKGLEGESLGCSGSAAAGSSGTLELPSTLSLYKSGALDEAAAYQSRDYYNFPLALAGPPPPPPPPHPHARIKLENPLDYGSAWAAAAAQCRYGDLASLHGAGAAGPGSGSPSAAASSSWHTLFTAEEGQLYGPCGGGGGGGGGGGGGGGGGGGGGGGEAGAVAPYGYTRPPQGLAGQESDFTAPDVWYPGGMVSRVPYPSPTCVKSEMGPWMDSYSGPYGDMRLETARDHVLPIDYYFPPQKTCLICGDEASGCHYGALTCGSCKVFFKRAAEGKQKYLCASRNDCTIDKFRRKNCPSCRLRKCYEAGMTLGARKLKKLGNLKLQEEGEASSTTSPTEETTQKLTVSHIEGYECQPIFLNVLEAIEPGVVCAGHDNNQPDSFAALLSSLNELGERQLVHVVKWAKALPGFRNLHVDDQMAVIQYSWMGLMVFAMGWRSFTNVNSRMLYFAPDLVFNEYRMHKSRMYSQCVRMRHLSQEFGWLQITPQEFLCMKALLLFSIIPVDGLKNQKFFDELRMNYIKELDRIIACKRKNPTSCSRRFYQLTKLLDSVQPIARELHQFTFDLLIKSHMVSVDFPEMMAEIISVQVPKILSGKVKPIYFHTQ
Chain of AR / CBP ternary complex (Q92793 2-2442): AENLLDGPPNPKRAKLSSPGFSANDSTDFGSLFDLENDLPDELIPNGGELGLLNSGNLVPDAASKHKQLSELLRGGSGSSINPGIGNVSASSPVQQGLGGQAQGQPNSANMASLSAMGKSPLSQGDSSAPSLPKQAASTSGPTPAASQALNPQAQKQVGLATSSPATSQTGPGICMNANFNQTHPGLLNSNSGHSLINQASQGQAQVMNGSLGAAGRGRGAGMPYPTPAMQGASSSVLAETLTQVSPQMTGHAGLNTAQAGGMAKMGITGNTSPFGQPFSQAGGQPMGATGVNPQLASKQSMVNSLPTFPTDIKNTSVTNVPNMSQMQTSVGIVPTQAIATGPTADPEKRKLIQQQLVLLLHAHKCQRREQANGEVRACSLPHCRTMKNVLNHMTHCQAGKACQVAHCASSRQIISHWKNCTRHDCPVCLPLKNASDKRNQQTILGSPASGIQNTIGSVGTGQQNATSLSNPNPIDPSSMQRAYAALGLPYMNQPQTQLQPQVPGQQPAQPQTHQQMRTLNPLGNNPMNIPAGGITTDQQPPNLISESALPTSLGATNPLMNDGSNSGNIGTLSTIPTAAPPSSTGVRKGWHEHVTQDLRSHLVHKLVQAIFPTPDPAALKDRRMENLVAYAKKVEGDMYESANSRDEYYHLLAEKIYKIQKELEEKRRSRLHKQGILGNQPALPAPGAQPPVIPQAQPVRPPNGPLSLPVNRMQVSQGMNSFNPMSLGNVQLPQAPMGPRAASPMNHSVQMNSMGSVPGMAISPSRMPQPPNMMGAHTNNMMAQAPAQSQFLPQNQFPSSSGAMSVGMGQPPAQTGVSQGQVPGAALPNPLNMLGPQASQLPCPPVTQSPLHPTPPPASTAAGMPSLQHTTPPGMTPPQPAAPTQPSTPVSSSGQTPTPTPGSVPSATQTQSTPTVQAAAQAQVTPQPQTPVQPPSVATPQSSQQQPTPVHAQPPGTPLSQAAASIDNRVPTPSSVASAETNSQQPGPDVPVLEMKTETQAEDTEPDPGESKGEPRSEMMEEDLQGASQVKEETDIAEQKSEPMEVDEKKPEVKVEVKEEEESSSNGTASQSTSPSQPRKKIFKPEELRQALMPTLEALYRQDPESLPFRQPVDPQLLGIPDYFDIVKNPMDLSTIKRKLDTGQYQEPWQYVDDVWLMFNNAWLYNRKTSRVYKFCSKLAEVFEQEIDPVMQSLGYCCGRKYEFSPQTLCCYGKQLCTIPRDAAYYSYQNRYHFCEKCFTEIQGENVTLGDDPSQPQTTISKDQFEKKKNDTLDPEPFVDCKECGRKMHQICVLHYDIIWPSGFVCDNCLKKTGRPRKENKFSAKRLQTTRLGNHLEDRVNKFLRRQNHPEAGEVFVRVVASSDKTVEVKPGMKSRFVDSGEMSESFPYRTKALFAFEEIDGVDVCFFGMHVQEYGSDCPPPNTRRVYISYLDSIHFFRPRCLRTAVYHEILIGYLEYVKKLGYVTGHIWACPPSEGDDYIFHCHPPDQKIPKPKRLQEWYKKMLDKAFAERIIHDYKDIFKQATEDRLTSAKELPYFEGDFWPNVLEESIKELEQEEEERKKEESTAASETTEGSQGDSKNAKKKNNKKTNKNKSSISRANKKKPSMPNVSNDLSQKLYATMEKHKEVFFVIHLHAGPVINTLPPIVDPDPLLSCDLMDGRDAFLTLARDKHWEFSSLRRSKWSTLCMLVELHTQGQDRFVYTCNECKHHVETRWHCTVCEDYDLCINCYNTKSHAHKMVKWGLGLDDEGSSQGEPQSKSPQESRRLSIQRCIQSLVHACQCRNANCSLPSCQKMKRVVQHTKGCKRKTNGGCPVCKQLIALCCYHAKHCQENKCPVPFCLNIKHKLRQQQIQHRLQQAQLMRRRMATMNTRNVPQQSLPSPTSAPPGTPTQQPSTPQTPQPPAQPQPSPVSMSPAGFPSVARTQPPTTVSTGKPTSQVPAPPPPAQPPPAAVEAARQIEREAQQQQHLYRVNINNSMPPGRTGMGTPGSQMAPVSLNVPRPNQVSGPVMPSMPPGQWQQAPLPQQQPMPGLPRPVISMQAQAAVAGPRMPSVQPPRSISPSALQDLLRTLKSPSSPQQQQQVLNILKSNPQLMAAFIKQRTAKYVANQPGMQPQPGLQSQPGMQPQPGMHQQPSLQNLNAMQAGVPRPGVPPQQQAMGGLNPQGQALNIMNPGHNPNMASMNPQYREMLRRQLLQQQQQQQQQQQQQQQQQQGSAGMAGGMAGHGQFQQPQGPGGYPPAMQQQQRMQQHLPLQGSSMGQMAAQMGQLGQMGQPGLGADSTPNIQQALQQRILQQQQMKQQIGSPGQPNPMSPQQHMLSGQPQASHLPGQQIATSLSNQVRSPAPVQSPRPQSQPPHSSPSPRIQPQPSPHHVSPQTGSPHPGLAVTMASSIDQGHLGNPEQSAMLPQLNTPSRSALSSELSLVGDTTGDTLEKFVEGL

CC(=O)N1CCc2c(c(N3CCCc4cc(-c5cscn5)c(C(F)F)cc43)nn2C2CCN(CC3CCN(c4ccc(C(=O)N[C@H]5CC[C@H](Oc6ccc(C#N)c(Cl)c6)CC5)nn4)CC3)CC2)C1 [Compound 253, 6-[4-[[4-[5-acetyl-3-[7-(difluoromethyl)-6-thiazol-4-yl-3,4-dihydro-2H-quinolin-1-yl]-6,7-dihydro-4H-pyrazolo[4,3-c]pyridin-1-yl]-1-piperidyl]methyl]-1-piperidyl]-N-[4-(3-chloro-4-cyano-phenoxy)cyclohexyl] pyridazine-3-carboxamide]
EC50 (AR / CBP ternary complex; [1]): < 1 nM
IC50 (VCaP cells): ≤ 0.1 nM

Cn1c(=O)n(C)c2cc(N3CCCc4cc(-c5ccc(CCC6CCN(c7ccc(C(=O)N[C@H]8CC[C@H](Oc9ccc(C#N)c(Cl)c9)CC8)nn7)CC6)nc5)ncc43)ccc21 [Compound 54, N-[4-(3-chloro-4-cyano-phenoxy)cyclohexyl]-6-[4-[2-[5-[1-(1,3-dimethyl-2-oxo-benzimidazol-5-yl)-3,4-dihydro-2H-1,7-naphthyridin-6-yl]-2-pyridyl]ethyl]-1-piperidyl] pyridazine-3-carboxamide]
EC50 (AR / CBP ternary complex; [1]): 1 to 10 nM
IC50 (VCaP cells): 0.1 to 1 nM

CC(=O)N1CCc2c(c(-c3cccc4cc(-c5cnn(C6CCN(C7CCN(c8ccc(C(=O)N[C@H]9CC[C@H](Oc%10ccc(C#N)c(Cl)c%10)CC9)nn8)CC7)CC6)c5)ncc34)nn2C2CCOCC2)C1 [Compound 183]
EC50 (AR / CBP ternary complex; [1]): < 1 nM
IC50 (VCaP cells): 0.1 to 1 nM

CC(=O)N1CCc2c(c(N3CCCc4cc(-c5cnn(C)c5)c(C(F)F)cc43)nn2[C@H]2CC[C@H](N3CCC4(CC3)CC(Oc3ccc(C(=O)N[C@H]5CC[C@H](Oc6ccc(C#N)c(Cl)c6)CC5)nn3)C4)CC2)C1 [Compound 248]
EC50 (AR / CBP ternary complex; [1]): < 1 nM
IC50 (VCaP cells): 0.1 to 1 nM

CC(=O)N1CCc2c(c(N3CCCc4cc(-c5cnn(C)c5)c(C(F)F)cc43)nn2C2CCN(CC3CCN(c4ccc(C(=O)N[C@H]5CC[C@H](Oc6ccc(C#N)c(Cl)c6)CC5)nn4)CC3)CC2)C1 [Compound 16, 6-[4-[[4-[5-acetyl-3-[7-(difluoromethyl)-6-(1-methylpyrazol-4-yl)-3,4-dihydro-2H-quinolin-1-yl]-6,7-dihydro-4H-pyrazolo[4,3-c]pyridin-1-yl]-1-piperidyl]methyl]-1-piperidyl]-N-[4-(3-chloro-4-cyano-phenoxy)cyclohexyl]pyridazine-3-carboxamide]
EC50 (AR / CBP ternary complex; [1]): < 1 nM
IC50 (VCaP cells): ≤ 0.1 nM

CC(=O)N1CCc2c(c(N3CCCc4cc(-c5cnn(C)c5)c(C(F)F)cc43)nn2[C@@H]2C[C@H]3CC[C@@H](C2)N3CC2CCN(c3ccc(C(=O)N[C@H]4CC[C@H](Oc5ccc(C#N)c(Cl)c5)CC4)nn3)CC2)C1 [Compound 152, 6-[4-[[(1R,5S)-3-[5-acetyl-3-[7-(difluoromethyl)-6-(1-methylpyrazol-4-yl)-3,4-dihydro-2H-quinolin-1-yl]-6,7-dihydro-4H-pyrazolo[4,3-c]pyridin-1-yl]-8-azabicyclo[3.2.1]octan-8-yl]methyl]-1-piperidyl]-N-[4-(3-chloro-4-cyano-phenoxy)cyclohexyl]pyridazine-3-carboxamide]
EC50 (AR / CBP ternary complex; read-out: Average Ternary Complex, treated 1.5 hours, rabbit CBP or p300 antibody detection): < 1 nM
IC50 (VCaP cells): 0.1 to 1 nM

CC(=O)N1CCc2c(c(-c3cccc4cc(-c5ccc(CCN6CCN(c7ccc(C(=O)N[C@H]8CC[C@H](Oc9ccc(C#N)c(Cl)c9)CC8)nn7)CC6)nc5)ncc34)nn2C)C1 [Compound 30, 6-[4-[2-[5-[8-(5-acetyl-1-methyl-6,7-dihydro-4H-pyrazolo[4,3-c]pyridin-3-yl)-3-isoquinolyl]-2-pyridyl]ethyl]piperazin-1-yl]-N-[4-(3-chloro-4-cyano-phenoxy)cyclohexyl]pyridazine-3-carboxamide]
EC50 (AR / CBP ternary complex; [1]): < 1 nM
IC50 (VCaP cells): ≤ 0.1 nM

CC(=O)N1CCc2c(c(N3CCCc4cc(-c5ncco5)c(C(F)F)cc43)nn2C2CCN(CC3CCN(c4ccc(C(=O)N[C@H]5CC[C@H](Oc6ccc(C#N)c(Cl)c6)CC5)nn4)CC3)CC2)C1 [Compound 256, 6-[4-[[4-[5-acetyl-3-[7-(difluoromethyl)-6-oxazol-2-yl-3,4-dihydro-2H-quinolin-1-yl]-6,7-dihydro-4H-pyrazolo[4,3-c]pyridin-1-yl]-1-piperidyl]methyl]-1-piperidyl]-N-[4-(3-chloro-4-cyano-phenoxy)cyclohexyl] pyridazine-3-carboxamide]
EC50 (AR / CBP ternary complex; [1]): < 1 nM
IC50 (VCaP cells): 0.1 to 1 nM

Cc1cc2c(N3CCCc4cc(-c5cnn(C)c5)c(C(F)F)cc43)cc(N3CCN(CC4CCN(c5ccc(C(=O)N[C@H]6CC[C@H](Oc7ccc(C#N)c(Cl)c7)CC6)nn5)CC4)CC3)cc2n(C)c1=O [Compound 135, N-[4-(3-chloro-4-cyano-phenoxy)cyclohexyl]-6-[4-[[4-[5-[7-(difluoromethyl)-6-(1-methylpyrazol-4-yl)-3,4-dihydro-2H-quinolin-1-yl]-1,3-dimethyl-2-oxo-7-quinolyl]piperazin-1-yl]methyl]-1-piperidyl]pyridazine-3-carboxamide]
EC50 (AR / CBP ternary complex; [1]): 1 to 10 nM
IC50 (VCaP cells): 0.1 to 1 nM

CC(=O)N1CCc2c(c(-c3cccc4cc(-c5cnn(CCC6CC7(C6)CN(c6ccc(C(=O)N[C@H]8CC[C@H](Oc9ccc(C#N)c(Cl)c9)CC8)nn6)C7)c5)ncc34)nn2C2CCOCC2)C1 [Compound 49, 6-[6-[2-[4-[8-(5-acetyl-1-tetrahydropyran-4-yl-6,7-dihydro-4H-pyrazolo[4,3-c]pyridin-3-yl)-3-isoquinolyl]pyrazol-1-yl]ethyl]-2-azaspiro[3.3]heptan-2-yl]-N-[4-(3-chloro-4-cyano-phenoxy)cyclohexyl]pyridazine3-carboxamide]
EC50 (AR / CBP ternary complex; [1]): < 1 nM
IC50 (VCaP cells): 0.1 to 1 nM

CC(=O)N1CCc2c(c(-c3cccc4cc(C5CC5)ncc34)nn2C2CCN(CC3CCN(c4ccc(C(=O)N[C@H]5CC[C@H](Oc6ccc(C#N)c(Cl)c6)CC5)nn4)CC3)CC2)C1 [Compound 123, 6-[4-[[4-[5-acetyl-3-(3-cyclopropyl-8-isoquinolyl)-6,7-dihydro-4H-pyrazolo[4,3-c]pyridin-1-yl]-1-piperidyl]methyl]-1-piperidyl]-N-[4-(3-chloro-4-cyano-phenoxy)cyclohexyl]pyridazine-3-carboxamide]
EC50 (AR / CBP ternary complex; [1]): < 1 nM
IC50 (VCaP cells): 0.1 to 1 nM

CC(=O)N1CCc2c(c(N3CCCc4cc(-c5cnn(C)c5)c(C)cc43)nn2C2CCN(CC3CCN(c4ccc(C(=O)N[C@H]5CC[C@H](Oc6ccc(C#N)c(Cl)c6C)CC5)nn4)CC3(C)C)CC2)C1 (stereo partly shown) [Compound 291, 6-[4-[[4-[5-acetyl-3-[7-methyl-6-(1-methylpyrazol-4-yl)-3,4-dihydro-2H-quinolin-1-yl]-6,7-dihydro-4H-pyrazolo[4,3-c]pyridin-1-yl]-1-piperidyl]methyl]-3,3-dimethyl-1-piperidyl]-N-[4-(3-chloro-4-cyano-2-methyl-phenoxy)cyclohexyl]pyridazine-3-carboxamide]
EC50 (AR / CBP ternary complex; [1]): < 1 nM
IC50 (VCaP cells): ≤ 0.1 nM

CC(=O)N1CCc2c(c(N3CCCc4cc(-c5cnn(C)c5)c(C(F)F)cc43)nn2C2CC3(C2)CN(CC2CC4(C2)CN(c2ccc(C(=O)N[C@H]5CC[C@H](Oc6ccc(C#N)c(Cl)c6)CC5)nn2)C4)C3)C1 (stereo partly shown) [Compound 41, 6-[6-[[6-[5-acetyl-3-[7-(difluoromethyl)-6-(1-methylpyrazol-4-yl)-3,4-dihydro-2H-quinolin-1-yl]-6,7-dihydro-4H-pyrazolo[4,3-c]pyridin-1-yl]-2-azaspiro [3.3]heptan-2-yl]methyl]-2-azaspiro [3.3]heptan-2-yl]-N-[4-(3-chloro-4-cyano-phenoxy)cyclohexyl] pyridazine-3-carboxamide]
EC50 (AR / CBP ternary complex; [1]): < 1 nM
IC50 (VCaP cells): ≤ 0.1 nM

CC(=O)N1CCc2c(c(N3CCCc4cc(-c5cnn(C)c5)c(C(F)F)cc43)nn2C2CCN(C(=O)C3CCN(c4ccc(C(=O)N[C@H]5CC[C@H](Oc6ccc(C#N)c(Cl)c6)CC5)cn4)CC3)CC2)C1 [Compound 158, 6-[4-[4-[5-acetyl-3-[7-(difluoromethyl)-6-(1-methylpyrazol-4-yl)-3,4-dihydro-2H-quinolin-1-yl]-6,7-dihydro-4H-pyrazolo[4,3-c]pyridin-1-yl]piperidine-1-carbonyl]-1-piperidyl]-N-[4-(3-chloro-4-cyano-phenoxy)cyclohexyl]pyridine-3-carboxamide]
EC50 (AR / CBP ternary complex; [1]): 1 to 10 nM
IC50 (VCaP cells): 0.1 to 1 nM

CC(=O)N1CCc2c(c(N3CCCc4cc(-c5cnn(C)c5)c(C)cc43)nn2C2CCN(C[C@H]3[C@H](C)CN(c4ccc(C(=O)N[C@H]5CC[C@H](Oc6ccc(C#N)c(Cl)c6)CC5)nn4)C[C@@H]3C)CC2)C1 [Compound 281]
EC50 (AR / CBP ternary complex; [1]): < 1 nM
IC50 (VCaP cells): ≤ 0.1 nM

CC(=O)N1CCc2c(c(N3CCCc4cc(-c5cnn(C)c5)c(C(F)F)cc43)nn2[C@H]2CC[C@H](OC3CCN(c4ccc(C(=O)N[C@H]5CC[C@H](Oc6ccc(C#N)c(Cl)c6)CC5)nn4)CC3)CC2)C1 [Compound 205, 6-[4-[4-[5-acetyl-3-[7-(difluoromethyl)-6-(1-methylpyrazol-4-yl)-3,4-dihydro-2H-quinolin-1-yl]-6,7-dihydro-4H-pyrazolo[4,3-c]pyridin-1-yl]cyclohexoxy]-1-piperidyl]-N-[4-(3-chloro-4-cyano-phenoxy)cyclohexyl]pyridazine-3-carboxamide]
EC50 (AR / CBP ternary complex; [1]): < 1 nM
IC50 (VCaP cells): ≤ 0.1 nM

Cc1cc2c(N3CCN(C)c4cc(-c5cnn(C)c5)c(C#N)cc43)cc(OCC3CCN(c4ccc(C(=O)N[C@H]5CC[C@H](Oc6ccc(C#N)c(Cl)c6)CC5)nn4)CC3)cc2n(C)c1=O [Compound 37, N-[4-(3-chloro-4-cyano-phenoxy)cyclohexyl]-6-[4-[[5-[7-cyano-4-methyl-6-(1-methylpyrazol-4-yl)-2,3-dihydroquinoxalin-1-yl]-1,3-dimethyl-2-oxo-7-quinolyl]oxymethyl]-1-piperidyl]pyridazine-3-carboxamide]
EC50 (AR / CBP ternary complex; [1]): > 100 nM
IC50 (VCaP cells): 0.1 to 1 nM

From US20250136578A1 (Kolm Therapeutics Inc., priority 2023, published 2025)
